From US12264163B2, “Compounds and methods for treating fibrotic pathologies” (Mayo Foundation for Medical Education and Research, priority 2019, dated 2025)

Tests used:
YAP/TAZ = YAP/TAZ nuclear localization in IMR-90 and other fibroblasts / mesenchymal cells (immunofluorescence); format: cell-based, human; conditions: cells with lower DRD1 and DRD5 expression than IMR-90
[1] = tested on: Collagen I and Fibronectin; test: Immuno-ECM: TGFβ-induced collagen I and fibronectin accumulation; format: cell-based, human; conditions: IPF patient-derived fibroblasts, TGFβ 48 hours then DHX 24 hours
Protocol: IPF patient-derived fibroblasts grown at confluence were pre-stimulated with 2 ng/mL TGFβ for 48 hours and then treated with DHX (10 μM)+2 ng/mL TGFβ for an additional 24 hours prior to fixation. Cell derived matrix is measured using antibodies for Collagen I and Fibronectin. […] Representative traction maps are shown from cells plated onto 6.4 kPa matrices treated with the indicated concentration of DHX. RMS tractions were determined in two independent experiments; box and whisker plots show min to max, quartile, and mean from one representative experiment (****p<0.0001, *p<0.05 vs. 0.1% DMSO vehicle control).
Immuno-ECM Adapting from previously published methods, IPF patient-derived fibroblasts were plated to confluence in clear-bottom 96-well plates. After cells attached, the medium was swapped for EMEM containing 0.10% FBS±2 ng/mL TGF-β. After 48 hours the indicated concentration of DHX or DMSO control was added to each well and incubated for 24 hours. WST-1 viability reagent was added to each well (Sigma-Aldrich) and measured on a Flexstation 3 (Molecular Devices) plate reader. […] Plates were imaged via a Li-Cor OdysseyXL system with quantification performed via densitometry. Data are expressed as IR intensity relative to WST-1 signal absorbance in order to account for any potential compound toxicity.

[2] = tested on: bleomycin-induced pulmonary fibrosis; test: Bleomycin mouse model of pulmonary fibrosis; format: in vivo; conditions: bleomycin mice
Protocol: Bleomycin Mouse Study: In the initial in vivo siRNA study (FIGS. 22 and 23A-23C), adult male age-matched C57BL/6N mice at 6-8 weeks of age were purchased from the National Cancer Institute (NCI)-Frederick Mouse Repository (Frederick, MD, USA). All experiments were performed in accordance with National Institute of Health guidelines and protocols approved by the Massachusetts General Hospital Subcommittee on Research Animal Care, and maintained all mice in a specific pathogen-free (SPF) environment certified by the American Association for Accreditation of Laboratory Animal Care (AAALAC). 6-8 weeks old mice were anesthetized with ketamine and xylazine before exposure of the trachea. Lung fibrosis was induced by intratracheal injection of bleomycin (50 μl at 1.2 U/kg) or phosphate buffered saline (PBS; as control) on day 0. After 14 days Small interfering RNA (siRNA) duplexes targeting mouse Yap (L-046247-01-0005) or Taz (L-058248-01-0005) mRNA (Dharmacon) or nontargeting control siRNA were administered in vivo by intratracheal instillation at a single dose of 25 μg (each siRNA) per mouse. On day 21 Mice were sacrificed and lungs harvested for collagen determination and biochemical analyses. To obtain BAL samples for total protein concentration determination, lungs were lavaged with six 0.5-mL aliquots of PBS. BAL samples were centrifuged at 3,000 g for 20 min at 4° C. and transferred the supernatants to siliconized low-binding Eppendorf tubes (PGC Scientifics) for subsequent analysis. Total protein concentration of the BAL fluid was determined by BCA Protein Assay Kit (Pierce). In the dihydrexidine treatment studies (FIG. 17-21), 8 week old female C57/BL6 mice were purchased from Charles River Laboratories. Mouse lung fibrosis was induced with bleomycin (BLEO; Fresenius Kabi) delivered intratracheally (3 U/kg) to the lungs using MicroSprayer® Aerosolizer (Penn-Century). The Sham mice received sterile 0.9% saline instead using identical methods. Mice were weighed every 24 hrs, and both groups were then randomized at day 10 into DHX and Control treatment groups, matching for the degree of weight change. DHX (5 mg/kg) was administered everyday intranasally (i.n.) dissolved in surfactant (infasurf) which has previously shown to aid in spreading to pulmonary aveoli for 14 days. The control groups of mice received the equivalent vehicle dose of surfactant. Following the final DHX treatment, mice were sacrificed and the right lungs were inflated with 4% paraformaldehyde (PFA) and further incubated in 4% PFA for 24 hours prior processing for paraffin embedding. The left lobe of the lung was snap frozen in liquid nitrogen for RNA isolation and hydroxyproline assay. Experimental procedures were approved by the Mayo Clinic Institutional Animal Care and Use Committee and the animals were handled in accordance with their guidelines.
Histological Scoring: Five μm thick sections were cut from Paraffin embedded lung tissues, and the sections were stained either with hematoxylin and eosin (H&E) or with Masson's Trichrome stain kit (Abcam). All H&E-stained slides and trichrome-stained slides were reviewed in a blinded fashion by a thoracic pathologist. The severity of interstitial and peribronchiolar lung immature and mature fibrosis was estimated on a numerical scale according to Ashcroft et al. For scoring purposes, all H&E stained slides were systematically scanned at 100× magnification and successive 100× fields were scored. Scoring was based on the following scale: 0 (no fibrosis), 1 (minimal interstitial and/or peribronchiolar thickening due to fibrosis), 3 (moderate thickening without obvious architectural distortion), 5 (increased fibrosis with formation of fibrous bands and/or small masses), 7 (severe architectural distortion with large areas of fibrosis and areas of honeycomb changes), and 8 (total fibrous obliteration of the field). The predominant score for each field was recorded. The mean of all scores was calculated for each case. […]

lung fibroblasts = test: Fibroblast proliferation (counting DAPI nuclei); format: cell-based, human
Protocol: IPF fibroblast and Normal lung fibroblast co-culture proliferation. Cell are prelabelled with fluorescent dyes (red and green) and then cocultured at a ratio of about 1:1 in 96 well plates. Cell counts are determined every 24 hours and plotted as a ratio of IPF/HLF cells. In the control wells the IPF cells outgrow and take over the well. N=2.
Proliferation of lung fibroblasts (IMR-90 cells) measured for 4 days in the presence of GPCR agonists ET-1 (100 nM) and LPA (10 μM)+/−10 μM DHX. Cells were fixed and counted with DAPI at the end of each day. N=3 technical triplicates.
Adult lung fibroblasts plated into 96-well plates, stimulated with 2 ng/mL TGFβ and compounds at the indicated concentration. Proliferation determined by fixing and counting DAPI nuclei using a Cytation 5. N=2.
Fibroblasts were stimulated with 2 ng/mL TGFβ and treated with compound 1 (MS-9) at the indicated concentration (0.1 μM, 1 μM, and 10 μM). Proliferation determined by fixing and counting DAPI nuclei using a Cytation.

## Oc1cc2c(cc1O)[C@H]1c3ccccc3CN[C@@H]1CC2 (racemic) [Dihydrexidine]
YAP/TAZ
  YAP/TAZ nuclear localization in mesenchymal cells derived from uterine fibroids: marginal inhibition of YAP/TAZ nuclear localization
[1]
  TGFβ-stimulated accumulation of collagen I and fibronectin: dose-dependently reversed
[2]; DHX 5 mg/kg i.n. Day 10-24
  lung remodeling by histology (Ashcroft, blinded pathologist): nearly completely protected from lung remodeling
  lung transcript levels of Acta2, Ctgf, Fn1, Col1a1, Col1a2, Yap and Taz: significantly attenuated
  staining for YAP and TAZ in the lungs: attenuated
  total collagen in the lungs (hydroxyproline): nearly identical to sham treated mice
[2]; DHX 5 mg/kg once daily i.n. from Day 10, vs Bleo control
  weight change: lost significantly less weight
[2]; two doses of DHX on day 10, lungs collected day 11
  expression of YAP/TAZ target genes in flow-sorted lung cells: selectively blocks expression of YAP/TAZ target genes in lung fibroblasts
Lung fibroblasts; 4 days, ET-1, LPA, TGFβ or CTGF +/− 10 μM DHX
  proliferation of lung fibroblasts: blocks proliferation
Lung fibroblasts; co-culture about 1:1, ratio of IPF/HLF cells every 24 hours
  IPF fibroblast and normal lung fibroblast co-culture proliferation: selectively slows proliferation in IPF fibroblasts
